Assay results taken from patent US9575054B2, “Identification of antitumor compounds using placenta” (Anthrogenesis Corporation, priority 2013, dated 2017).

Experiments:
Assay type in all cases: cell-based, human
[1] = test system: HCT116 cells; experiment: MTS cell viability, HCT116 cells cultured in wells only; details: HCT116 alone, 48 hours, control 100.00%
Experimental: (§1) Blocks of decellularized placental vascular scaffold (DPVS) in 24-well plates were seeded with HCT116 cells (1×10^5 cells/per well), a human colorectal cancer cell line. As a control, HCT116 cells were cultured in wells only, i.e., in the absence of DPVS. Trichostatin A (TSA), a drug contemplated for use in the treatment of cancer, was added to the DPVS/cells or cells alone at concentrations of 20 μM and 100 μM, or was not added at all (as a control). After 48 hours of culture, cell viability was measured by MTS assay. […] Thus, DPVS can be used a platform for assessing cancer cell killing by potential antitumor compounds.

[2] = test system: HCT116 cells; experiment: MTS cell viability, HCT116 cells seeded on decellularized placental vascular scaffold (DPVS); details: 48 hours, control 100.00%
Experimental: as §1

[3] = test system: MDA-MB231/Luciferase cells; experiment: Luciferase activity (Xenogen IVIS) of MDA-MB231/Luciferase cells on DPVS; details: TSA 100 ng/mL, 24 hours, cells on DPVS in 6-well plates; untreated 25.63×10^6
Experimental: Cells expressing luciferase were detected visually and quantitatively, using the Xenogen IVIS spectrum, by measuring Luciferase activity of the cells, which is indicative of cell number.
To examine the anti-cancer drug effect on cancer cells grown in DPVS, 1.5×10^5 MDA-MB231/Luciferase cells (a human breast cancer (adenocarcinoma) cell line that expresses luciferase; Cell Biolabs) were seeded onto DPVS in 6-well plates. One set of cells/DPVS was treated with Trichostatin A (TSA, 100 ng/mL) for 24 hours. Luciferase expression by the TSA-treated cells cultured on DPVS was compared with control cultures comprising cells/DPVS that were not treated with TSA. […] Thus, DPVS can be used to study the ability of cancer drugs, e.g., TSA, to affect cancer cell growth in a three-dimensional context.

[4] = test system: MDA-MB231/Luc and CRL1803-TT (thyroid tissue carcinoma) cells; experiment: MTS viable cell number of tumor cells in decellularized placental cotyledon (bioreactor); details: TSA 100 ng/mL, 10 days in bioreactor, single cotyledon, FIG. 1A
Experimental: (§2) Trichostatin A (TSA, 100 ng/mL) was added to the growth medium (300 mL) and the cells were cultured for 10 days in a bioreactor. As a control, MDA-MB231/Luc and CRL1803-TT were infused into the vasculature of a single isolated cotyledon (3×10^6 cells/cotyledon) and cultured in growth medium only for 10 days in a bioreactor.
(§3) Culture medium was collected throughout the culture period and measured for Calcitonin levels by ELISA. In addition, at the end of the culture (day-10), the numbers of viable cells in both the TSA-treated and control cotyledons were determined by MTS assay.

[5] = test system: MDA-MB231/Luc and CRL1803-TT (thyroid tissue carcinoma) cells; experiment: Calcitonin ELISA of culture medium from tumor cells in placental cotyledon; details: TSA 100 ng/mL, 10-day culture, single cotyledon, FIG. 1B
Experimental: as §2, §3

[6] = test system: MDA-MB231/Luciferase positive cells; experiment: Luciferase expression (IVIS imaging) of MDA-MB231/Luciferase cells in placental cotyledon; details: TSA 100 ng/mL, 4 days in bioreactor, single cotyledon
Experimental: MDA-MB231/Luciferase positive cells were infused into the vasculature of a single isolated cotyledon (40×10^6 cells/cotyledon). Trichostatin A (TSA, 100 ng/mL) was added to the growth medium (300 mL) and the cells were cultured for 4 days in a bioreactor. As a control, an equivalent number (40×10^6 cells/cotyledon) of MDA-MB231/Luc cells were infused into the vasculature of a single isolated cotyledon and cultured in growth medium only for 4 days in a bioreactor. After 4 days of culture, each cotyledon was transferred to growth medium comprising Luciferin (150 ng/mL) for 10 minutes. Both cotyledons then were analyzed using the IVIS imaging system.

CC(/C=C/C(=O)NO)=C\[C@@H](C)C(=O)c1ccc(N(C)C)cc1 [TSA, Trichostatin A]
Cell viability (% of untreated control) ([1]; TSA 20 uM): 11.21%
Cell viability (% of untreated control) ([1]; TSA 100 uM): 10.36%
Cell viability (% of untreated control) ([2]; TSA 20 uM): 97.00%
Cell viability (% of untreated control) ([2]; TSA 100 uM): 73.32%
luciferase signal [3]: 8.22×10^6
cell survival (viable cells by MTS) vs growth medium control [4]: reduced cell survival
Calcitonin production by the cells [5]: reduced
luciferase expression vs cotyledon cultured in the absence of TSA [6]: marked decrease in luciferase expression
